{
  "source": "patent US7705016B2",
  "about": "“Regulation of food intake by modulation of long-chain fatty acyl-CoA levels in the hypothalamus” (Albert Einstein College of Medicine of Yeshiva University, priority 2003, dated 2010)",
  "test_system": "PEPCK mRNA",
  "test": "Hepatic PEPCK mRNA after ICV OA (northern blot)",
  "assay_type": "in vivo, rat",
  "settings": "either group (HF55, HF140)",
  "method": "Northern Blot Analysis. Total RNA was isolated from hypothalami and liver with Trizol (Invitrogen Corp., California, USA). NPY, Glc-6-Pase or PEPCK expression was measured by northern blot analysis. Hypothalamic RNA was analyzed using probes for prepro-NPY and β-actin. To assess the effect of ICV OA on the expression of hepatic enzymes, total RNA was isolated from freeze-clamped liver tissues from rats subjected to insulin clamp studies. Glc-6-Pase and PEPCK cDNA were obtained as previously described (Combs et al., 2001; Massillon et al., 1996; 1998). Probes were labeled with [α-^32P] dCTP using a random primer kit (Stratagene). Quantification was performed by scanning densitometry, normalizing for β-actin signal and 18S ribosomal RNA to correct for loading variabilities. Effect of ICV OA on the hepatic expression of Glc-6-Pase and PEPCK. The potent effects of the central administration of OA on hepatic glucose fluxes prompted us to examine whether changes in the liver mRNA levels of key metabolic enzymes can partly account for these effects. Thus, we next measured the liver abundance of Glc-6-Pase and PEPCK mRNA as a function of 18S ribosomal RNA (FIG. 9d) or β-actin mRNA (not shown) in tissue samples obtained after ICV infusion of either OA or vehicle in caloric restricted and over-fed rats. […]",
  "data": [
    {"molecule": "CCCCCCCC/C=C\\CCCCCCCC(=O)O", "note": "[OA, oleic acid]", "values": [
      {"measurement": "liver expression of PEPCK", "value": "failed to significantly alter"}
    ]}
  ]
}
